According to publication PMC3215729, “Rv2607 from Mycobacterium tuberculosis Is a Pyridoxine 5′-Phosphate Oxidase with Unusual Substrate Specificity” (PLoS ONE, 2011):

Molecular target: T1, Rv2607 (PNPOx) (Mycobacterium tuberculosis, UniProt P9WIJ1)
T1 construct: gene pdxH
T1 sequence (P9WIJ1 whole entry): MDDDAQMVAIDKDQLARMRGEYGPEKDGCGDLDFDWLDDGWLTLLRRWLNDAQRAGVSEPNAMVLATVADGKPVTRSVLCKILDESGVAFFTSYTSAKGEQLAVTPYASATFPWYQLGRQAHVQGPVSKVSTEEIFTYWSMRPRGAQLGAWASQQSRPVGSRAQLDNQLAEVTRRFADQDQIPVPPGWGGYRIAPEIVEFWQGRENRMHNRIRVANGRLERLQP

Cc1cc2nc3c(=O)[nH]c(=O)nc-3n(C[C@H](O)[C@H](O)[C@H](O)COP(=O)(O)O)c2cc1C [FMN] was tested, and the “native nESI-MS of intact complex; ESI-MS identification of extracted cofactor” value was “The yellow cofactor bound tightly to Rv2607 as purified and was unambiguously identified as FMN”.
